Test results reported in patent US10793575B2, “Oxoisoquinoline derivatives” (CARNA BIOSCIENCES, INC., priority 2016, dated 2020).

What follows are compounds tested on OCI-Ly10 cells (assay: Proliferation-Inhibitory Test Against Diffuse Large-Cell B-Cell Lymphoma OCI-Ly10 Strain). Settings: Homo sapiens, 96 hours, alamarBlue.
Type: cell-based
Method: OCI-Ly10 cells were cultured in IMDM medium (Iscove's Modified Dulbecco's Medium, Manufactured by Thermo Fisher Scientific Inc., hereinafter “medium”) containing 20% Fetal bovine serum and 1% penicillin-streptomycin (Nacalai Tesque, Inc.) in a 5% CO2 incubator. OCI-Ly10 cells were seeded to 96-well plate (20000 cells/well), compounds diluted with medium were added with final concentrations of 0.9 nM to 30000 nM (Final DMSO concentration, 0.3%), incubated for 96 hours and alamorBlue reagent (Thermo Fisher Scientific Inc.) was added.

| SMILES | IC50 [nM] |
| --- | --- |
| Nc1nc(-c2cccc(-n3ccc4cc(C5CC5)cc(F)c4c3=O)c2CO)c2cc(-c3ccc(CN4CCC(O)CC4)cc3)[nH]c2n1 [Example 73, 2-[3-(2-amino-6-{4-[(4-hydroxypiperidin-1-yl)methyl)phenyl}-7H-pyrrolo[2,3-d]pyrimidin-4-yl)-2-(hydroxymethyl)phenyl]-6-cyclopropyl-8-fluoroisoquinolin-1(2H)-one] | 11 |
| COC1CCN(Cc2ccc(-c3cc4c(-c5cccc(-n6ccc7cc(C8CC8)cc(F)c7c6=O)c5CO)nc(N)nc4[nH]3)cc2)CC1 [Example 74, 2-[3-(2-amino-6-{4-[(4-methoxypiperidin-1-yl)methyl]phenyl}-7H-pyrrolo[2,3-d]pyrimidin-4-yl)-2-(hydroxymethyl)phenyl]-6-cyclopropyl-8-fluoroisoquinolin-1(2H)-one] | 13 |
| CC(=O)N1CCN(Cc2ccc(-c3cc4c(-c5cccc(-n6ccc7cc(C8CC8)cc(F)c7c6=O)c5CO)nc(N)nc4[nH]3)cc2)CC1 [Example 75, 2-[3-(6-{4-[(4-acetylpiperazin-1-yl)methyl]phenyl}-2-amino-7H-pyrrolo[2,3-d]pyrimidin-4-yl)-2-(hydroxymethyl)phenyl]-6-cyclopropyl-8-fluoroisoquinolin-1(2H)-one] | 10 |
| CC1CN(Cc2ccc(-c3cc4c(-c5cccc(-n6ccc7cc(C8CC8)cc(F)c7c6=O)c5CO)nc(N)nc4[nH]3)cc2)CC(C)O1 (stereo not drawn) [Example 76, 2-[3-(2-amino-6-{4-[(2,6-dimethylmorpholino)methyl]phenyl}-7H-pyrrolo[2,3-d]pyrimidin-4-yl)-2-(hydroxymethyl)phenyl]-6-cyclopropyl-8-fluoroisoquinolin-1(2H)-one] | 47 |
| Nc1nc(-c2cccc(-n3ccc4cc(C5CC5)cc(F)c4c3=O)c2CO)c2cc(-c3ccc(CN4CCC(F)(F)CC4)cc3)[nH]c2n1 [Example 77, 2-[3-(2-amino-6-{4-[(4,4-difluoropiperidin-1-yl)methyl]phenyl}-7H-pyrrolo[2,3-d]pyrimidin-4-yl)-2-(hydroxymethyl)phenyl]-6-cyclopropyl-8-fluoroisoquinolin-1(2H)-one] | 62 |

Second part, the compound after the results:

| IC50 [nM] | SMILES |
| --- | --- |
| 50 | Cn1ccc(-c2cc3c(-c4cccc(-n5ccc6cc(C7CC7)cc(F)c6c5=O)c4CO)nc(N)nc3[nH]2)n1 [Example 78, 2-{3-[2-amino-6-(1-methyl-1H-pyrazol-3-yl)-7H-pyrrolo[2,3-d]pyrimidin-4-yl]-2-(hydroxymethyl)phenyl}-6-cyclopropyl-8-fluoroisoquinolin-1(2H)-one] |
| 30 | Nc1nc(-c2cccc(-n3ccc4cc(C5CC5)cc(F)c4c3=O)c2CO)c2cc(-c3ccc(CN4CCN(CC(F)(F)F)CC4)cc3)[nH]c2n1 [Example 79, 2-{3-[2-amino-6-(4-{[4-(2,2,2-trifluoroethyl)piperazin-1-yl]methyl}phenyl)-7H-pyrrolo[2,3-d]pyrimidin-4-yl]-2-(hydroxymethyl)phenyl}-6-cyclopropyl-8-fluoroisoquinolin-1(2H)-one] |
| 70 | CC1(C)CCCN(Cc2ccc(-c3cc4c(-c5cccc(-n6ccc7cc(C8CC8)cc(F)c7c6=O)c5CO)nc(N)nc4[nH]3)cc2)C1 [Example 80, 2-[3-(2-amino-6-{4-[(3,3-dimethylpiperidin-1-yl)methyl]phenyl}-7H-pyrrolo[2,3-d]pyrimidin-4-yl)-2-(hydroxymethyl)phenyl]-6-cyclopropyl-8-fluoroisoquinolin-1(2H)-one] |
| 24 | Nc1nc(-c2cccc(-n3ccc4cc(C5CC5)cc(F)c4c3=O)c2CO)c2cc(C3=CCSCC3)[nH]c2n1 [Example 82, 2-{3-[2-amino-6-(3,6-dihydro-2H-thiopyran-4-yl)-7H-pyrrolo[2,3-d]pyrimidin-4-yl]-2-(hydroxymethyl)phenyl}-6-cyclopropyl-8-fluoroisoquinolin-1(2H)-one] |
